{"source": "patent US9789199B2", "about": "“MetAP-2 inhibitor polymersomes for therapeutic administration” (priority 2007, dated 2017)", "key": {"LLC tumors": {"system": "LLC tumors", "assay": "Oral Lodamin vs free TNP-470, primary Lewis lung carcinoma tumor experiments", "type": "in vivo, mouse", "details": "free TNP-470 given orally, 30 mg/kg q.o.d.", "method": "For tumor experiments: LLC cells (1×10^6) or B16/F10 melanoma cells (1×10^6) were implanted subcutaneously in 8 week old C57Bl/6J male mice (Jackson Laboratories, Bar Harbor, Me.). Oral availability of free TNP-470 was compared to that of Lodamin. A dose of 30 mg/kg q.o.d. of free TNP-470 and an equivalent dose of Lodamin (Lodamin, 6 mg in 100 μl/d) were administered to LLC tumor bearing mice (˜100 mm^3) and tumor growth was followed for 18 d. Free drug was given as a suspension in double distilled water and freshly prepared before each dose. Additionally, we compared different doses and frequencies of Lodamin treatment: 15 mg/kg q.d., 15 mg/kg q.o.d. and 30 mg/kg q.o.d. To eliminate any possible effect of the vehicle (polymer without drug) one group of mice was given micelles without drug and tumor progression was compared to water treated mice.\nFor the melanoma tumor experiment, a dose of 15 mg/kg q.d. Lodamin was administered to B16/F10 melanoma bearing mice. In all experiments, tumor size and animal weight were monitored every 2 d. Tumor volume was measured with calipers in two diameters as follows: (width)^2×(length)×0.52. Note that all the above Lodamin doses are presented as TNP-470 equivalent."}, "[1]": {"system": "murine, human and metastatic tumors", "details": "mice, cited from earlier work"}, "[2]": {"details": "parent drug; cited from earlier work"}, "[3]": {"assay": "Balance beam motor coordination test (neurotoxicity)", "type": "in vivo, mouse", "details": "free TNP-470 injected subcutaneously 30 mg/kg q.o.d., vs control", "method": "A slightly modified balance beam motor coordination test was performed on three groups of mice: Oral Lodamin treated mice (30 mg/kg eq. q.o.d.), free TNP-470 (30 mg/kg) subcutaneously injected mice and water treated mice (administered by gavage). The mice were pretreated for 14 d (n=4-5 per group) and then the mice were allowed to acclimate to the procedure room for 1 h, after which they were trained in 3 trials to cross a wide (20 mm width×1 m length) balance beam. All the mice crossed the wide beam without making foot-slip errors. The mice were then trained on a narrow (4 mm width×1 m length) beam for 3 trials. At the end of the training trials, no freezing behavior was observed, and the mice would start to walk within 4 seconds of being placed on the beam. The mice were then videotaped as they performed in 3 test trials of 3 beam crossings each—a total of 9 crossings per mouse. The 3 trials were separated by at least 1 h to avoid fatigue of the mice. Videotaped crossings were scored for number of foot-slip errors and time to cross. All experiments and scoring of the different groups were performed by an investigator who has been no knowledge regarding the treatment regime of the mice."}, "[4]": {"details": "high chemotherapeutic doses; cited from earlier work"}, "[5]": {"assay": "Body distribution and serum levels after oral administration", "type": "in vivo, mouse", "details": "post-administration", "method": "For all biodistribution studies we used a fluorescent marker for tracking Lodamin. Mice were administered 6-coumarin labeled mPEG-PLA by oral gavage for 3 d (100 μl of 1.5 mg/ml). On the third day of treatment, after 8 h of fasting, animals were sacrificed and spleen, kidney, brain, lungs, liver, intestine, stomach, and bladder were collected. The fluorescent 6-coumarin was extracted from the tissues by incubation with formamide for 48 h at 25° C. Samples were centrifuged and signal intensity of fluorescence of supernatants was detected with a Wallac 1420 VICTOR plate-reader (Perkin-Elmer Life Sciences) with excitation/emission at 488 nm/530 nm. […] Tissue autofluorescence was corrected by subtracting the fluorescent signal of non-treated mouse organs from the respective readings in treated mice. Similarly, levels of fluorescent signal in mouse sera were measured in different time points (1, 2, 4, 8, 24, 48 and 72 h) using excitation/emission readings at 488 nm/530 nm.\nIn order to analyze cell uptake in the different tissues in tumor bearing mice, PEG-PLA-rhodamine micelles (100 μl of 1.5 mg/ml) or water were orally administered to C57Bl/6J mice bearing LLC tumors (200 mm^3) for 3 d. […] These suspensions were analyzed by flow cytometry in order to quantify the uptake of micelles into different tissue cells when compared to those in the untreated mouse."}, "obesity": {"system": "obesity", "details": "mice; cited from earlier work"}, "RAGE and HMGB-1": {"system": "RAGE and HMGB-1", "assay": "RAGE and HMGB-1 protein levels in HMVEC", "type": "cell-based", "details": "0.1-100 nM", "method": "A dose dependent effect on RAGE expression was detected.\nRPE cells were cultivated as has been previously described^59. […] HMVECs, were purchased from Cambrex Bio Science Inc. (Rockland, Me.) and were maintained on collagen I coated plates with endothelial cell growth medium containing 2% FBS (EGM-2; Cambrex, Inc.) at 37° C. with humidified 95% air/5% CO2.\nLodamin Reduces MCP-1 and VEGF Induced Vessel Permeability"}}, "note": "“Also recorded” adds a separate entry of the source.", "data": [{"substance": "6-O—(N-chloroacetylcarbamoyl)fumagillol [TNP-470]", "values": [{"measurement": "effect on growth of subcutaneous LLC tumors", "setting": "LLC tumors", "result": "no inhibition; also recorded: had no effect"}, {"measurement": "inhibition of growth of human tumors", "setting": "[1]", "result": "up to 100%"}, {"measurement": "inhibition of growth of metastatic tumors", "setting": "[1]", "result": "up to 100%"}, {"measurement": "inhibition of growth of murine tumors", "setting": "[1]; mostly 30 mg/kg subcutaneously every other day", "result": "up to 91%"}, {"measurement": "plasma half-life", "setting": "[2]", "result": "a few minutes"}, {"measurement": "balance beam foot-slip errors", "setting": "[3]", "result": "over twice as many errors"}, {"measurement": "neurotoxicity in patients", "setting": "[4]", "result": "many patients experience neurotoxicity"}, {"measurement": "time up to which free drug was detected in mice sera", "setting": "[5]", "result": "up to 2 h"}, {"measurement": "effect on obesity", "setting": "obesity", "result": "prevent diet-induced and genetic obesity"}, {"measurement": "RAGE and HMGB-1 levels", "setting": "RAGE and HMGB-1", "result": "reduced in a dose dependent manner"}]}]}
